In assay [1] the test system is CD-4+ (A 3.01). Nature of the assay: Antiviral activity in CD-4+ (A 3.01) cell line expressed as IC50. The class given is functional, cell-based.
The test system of assay [2] is CD-4+ (A 3.01). In words: Antiviral activity in CD-4+ (A 3.01) cell line expressed as CC50. The class given is functional.
A further assay concerns H9. In words: Antiviral activity in H9 cells expressed as IC50. The class given is functional, cell-based. Particulars: Homo sapiens.
The test system of a further assay is CEM-SS. Nature of the assay: Tested for anti-HIV activity in CEM-SS cell line; Inactive. The class given is functional, cell-based. The following applies: Homo sapiens.
The subject of assay [3] is MT4. In words: Antiviral activity in MT-4 cells expressed as CC50. The class given is functional. The following applies: Homo sapiens.
Assay [4] relates to MT4. In words: Antiviral activity in MT-4 cells expressed as IC50. The format is functional, cell-based, Homo sapiens.
The subject of assay [5] is MT4. In words: Antiviral activity in MT-4 cells. The format is functional, cell-based. Particulars: Homo sapiens.
Assay [6] deals with MT4. Nature of the assay: Cytotoxicity against MT-4 cells. The format is functional. The following applies: Homo sapiens.
A short description of assay [7]: Antiviral activity in PBM cells. The format is functional, cell-based. Particulars: Homo sapiens, PBMC.
For assay [8], the system named is CCRF-CEM. In words: Cytotoxicity against CEM cells. The class given is functional. Particulars: Homo sapiens.
The nature of assay [9]: Cytotoxicity against PBM cells. The format is functional. The following applies: Homo sapiens, PBMC.
Assay [10] can be described thus: Antiviral activity in PBM cells expressed as IC50. The format is functional, cell-based, Homo sapiens.
Assay [11] in a line: Antiviral activity in PBM cells expressed as CC50. The class given is functional. Particulars: Homo sapiens, PBMC.
Assay [12] deals with CCRF-CEM. Nature of the assay: Antiviral activity in CEM cells expressed as CC50. The following applies: Homo sapiens. The format is functional.

pIC50: −log10 of the molar value. Activity calls are given as the source filed them. No cut-off for these calls is given here.

What is called pIC50 is −log10 of the IC50, conventionally taken in molar units. A higher pIC50 goes with a small IC50. One may read the CC50 as the concentration giving 50% cytotoxicity. Lower therefore signals harm at low concentration. For the compound `Cc1cn([C@H]2C[C@H](O)[C@](CO)(N=[N+]=[N-])O2)c(=O)[nH]c1=O`, the pIC50 with CD-4+ (A 3.01) [1] is 8.00. In the assay with CD-4+ (A 3.01) [2], the CC50 was 8000 nM. `Nc1ccn(C2CC(CO)C(CO)O2)c(=O)n1` (centres undefined) gave a pIC50 in the assay with H9 of 8.00. For `Cc1cn(C2CSC(CO)(CO)O2)c(=O)[nH]c1=O` (centres undefined), the Anti-HIV activity entry in the assay on CEM-SS is “inactive”.

In the case of `Cc1cn(C2CSC3(COP(=O)(O)OC3)O2)c(=O)[nH]c1=O` (centres undefined), in the assay with CEM-SS, the Anti-HIV activity entry was “inactive”. The same measure, in the same setting: with `Nc1ccn(C2CSC(CO)(CO)O2)c(=O)n1` (centres undefined) the entry was “inactive”.

As for `Nc1ccn(C2CSC3(COP(=O)(O)OC3)O2)c(=O)n1` (centres undefined), the Anti-HIV activity entry in the assay with CEM-SS is “inactive”. In turn, `Nc1ccn([C@@H]2CS[C@H](CO)O2)c(=O)n1` (racemic) [LAMIVUDINE] gave a CC50 in the assay on MT4 [3] of 405000 nM. The compound also showed a pIC50 in the assay on MT4 [4] (Homo sapiens, MT4) of 6.43. On to `Nc1ccn([C@@H]2CS[C@H](CO)O2)c(=O)n1` (single isomer, unassigned) [LAMIVUDINE], for which the pIC50 with MT4 [5] was 6.43; in assay [7], 6.68. Besides, the values for the CC50 (in the assay with MT4 [6]; with CCRF-CEM [8]; in [9]) were 407000 nM, 363000 nM and more than 100000 nM, respectively. In [10], `Nc1ccn([C@@H]2CS[C@H](CO)O2)c(=O)n1` (stereo in doubt; (+)) [LAMIVUDINE] showed a pIC50 of 6.68. In [11], the CC50 was more than 100000 nM.

As to `Nc1ccn([C@@H]2CS[C@H](CO)O2)c(=O)n1` (stereo in doubt; (-)) [LAMIVUDINE], it took 363000 nM to reach half-maximal cytotoxicity with CCRF-CEM [12] (CC50). For the same compound, the pIC50 in assay [10] is 8.70; in the assay with MT4 [4] (mt4), 6.21.

The record behind these values is ChEMBL document CHEMBL1129925, “Synthesis and antiviral evaluation of 4-hydroxymethyl-2, 3-dideoxy-3-thianucleosides and their cyclic monophosphates” (Bioorg Med Chem Lett, 1997).
